# Earlier results as cited in patent US20050260613A1 (priority 2003, published 2005).
# System: AD patients
# Details: presence of the ApoE4 allele
smiles,measurement,value
Nc1c2c(nc3ccccc13)CCCC2 [tacrine],response to treatment in presence of the ApoE4 polymorphism,reduced response
